The SangsterLogP compilation

Legend:
[1] = method code SF-AS, from DOI: 10.1007/bf01067967, PMID: 3820093; conditions: pH 7.5
[2] = method code SF-GLC, from DOI: 10.1021/je970069v
[3] = method code SF-AS, from DOI: 10.1021/es00012a023, PMID: 22148214
[4] = method code SF-AS, from DOI: 10.1021/jm00223a031, PMID: 810572
[5] = method code SF-CR, from DOI: 10.1248/cpb.21.2417, PMID: 4779830; conditions: pH 6.0
[6] = method code SF-HPLC, from DOI: 10.1080/01483919108049396; conditions: pH 7.0
[7] = method code SF-AS, from DOI: 10.1021/jm00075a005, PMID: 8246220; conditions: pH 7.4
[8] = method code SF-NMR, from DOI: 10.1021/jm00157a023, PMID: 3806574
[9] = method code SF-CR+DM, from DOI: 10.1021/ja01573a017; conditions: pH 6.5
[10] = method code SF-AS, from DOI: 10.1002/jps.2600650731; conditions: pH 11.5
[11] = method code SF-AS, from KuchaÅ™, M.; Rejholec, V.; Miller, V. (1985). Chromatographically determined lipophilicity and intramolecular interactions of bioactive compounds. Pharmacochemistry Library, 8, 321-331.; conditions: pH 3.4
[12] = method code SF-AS, from PMID: 3699148; conditions: pH 7.4
[13] = method code SF-AS, from DOI: 10.1111/j.1476-5381.1988.tb11523.x, PMID: 2900037; conditions: pH 9.0
[14] = method code SF, from DOI: 10.1016/j.bmcl.2006.04.097, PMID: 16714112
[15] = not given; remark: listed apart in the source
[16] = method code SF-EPR, from DOI: 10.1007/bf01870789, PMID: 2549250; conditions: pH 12.0
[17] = method code SF-RC, from DOI: 10.1016/s0969-8051(98)00096-1, PMID: 10100217; conditions: pH 7.4
[18] = method code SF-AS, from DOI: 10.1016/s0021-9673(00)82600-x
[19] = not given; remark: listed apart in the source
[20] = method code SF-HPLC, from PMID: 1515051; conditions: pH 6.0
[21] = method code SF-AS, from DOI: 10.1002/ddr.430140205; conditions: pH 7.4
[22] = method code SF-GLC, from DOI: 10.1007/bf00224496
[23] = not given; remark: listed apart in the source

CCCCc1ccc(N)cc1 showed a logD [1] of 3.05.

For C=C(C)C(=O)OCc1ccccc1, the logP was 2.16.

Work on Cc1c(Cl)c(Cl)c(C(C)C)c(Cl)c1Cl yielded a logP [2] of 6.8.

CC(C)OC(=O)CS(=O)c1ccccc1[N+](=O)[O-] (configuration not stated) gave a logP [3] of 1.59.

With CC(C)c1ccc(N)cc1 the logD [1] was 2.31.

Work on Cc1ccnc2c(O)cccc12 yielded a logP [4] of 2.36.

In the case of CN1C=CSC1NS(=O)(=O)c1ccc(N)cc1 (configuration not stated), the logD [5] is reported as -0.07.

Oc1cccc2c(Cl)ccnc12 gave a logP [4] of 2.67.

In the case of O=c1[nH]cnc2c1ncn2[C@H]1C[C@H](O)[C@@H](CO)O1, the logD [6] is reported as -1.71.

O=C1CC2(CCCC2)C(=O)N1Oc1ccccc1 showed a logD [7] of 1.77.

Molecule Cc1c(Cl)cc(C(C)C)c(Cl)c1Cl has a logP [2] of 6.2.

For CCOCCOCCOP(=S)(N1CC1)N1CC1, the logP [8] was 0.38.

Molecule Oc1c(Cl)cc(Cl)c2ccccc12 has a logD [9] of 4.76.

With CN(C(=N)N)/C(N)=N/c1ccc(Cl)cc1 the logD [10] was 1.58.

Molecule CCC(O)(C(=O)O)c1ccccc1 (configuration not stated) has a logD [11] of 1.37.

In the case of NC(=O)c1ccccc1NCCO, the logD [12] is reported as -0.05.

Molecule CNC(=NC#N)NCCSCc1csc(N=C(N)N)n1 has a logD [13] of 0.6.

For CNC(=C[N+](=O)[O-])NCCSCc1nccs1, the logD [13] was -0.15.

With Fc1cccc(Cl)c1C1=NCCO1 the logP [14] was 1.89.

For O=C1CNC(=O)C(Cc2ccccc2)N1 (configuration not stated), the logP [15] was 0.25.

Molecule CC1(C)CC(N)CC(C)(C)N1O has a logD [16] of 0.56.

CCC/N=C(N)/N=C(\N)Nc1ccc(Cl)cc1 gave a logD [10] of 2.63.

Work on Nc1ccc2ccccc2c1 yielded a logD [1] of 2.4.

Work on COc1c(O)c(C)c(CCCCCCCCCCO)c(O)c1OC yielded a logD [17] of 2.55.

CN(C)c1cnn(-c2cccc(C(F)(F)F)c2)c(=O)c1Cl gave a logP [18] of 2.67.

CON(C)C(=O)Nc1ccc(Cl)cc1 gave a logP [19] of 2.16.

COc1ccc(C(=O)CCCC(=O)O)cc1 gave a logD [11] of 1.63.

In the case of CCCOC(=O)n1c(-c2cscn2)nc2ccccc21, the logD [20] is reported as 2.98.

COC1=C(OC)C(=O)C(CCCCCCCCCCO)=C(C)C1=O gave a logD [17] of 2.96.

Molecule COC(=O)CSc1ccccc1[N+](=O)[O-] has a logP [3] of 1.88.

Molecule CNc1cnn(-c2ccccc2)c(=O)c1Cl has a logP [18] of 1.19.

In the case of CN1C=CC=CC1NS(=O)(=O)c1ccc(N)cc1 (configuration not stated), the logD [5] is reported as -0.58.

Nc1cc(-c2ccncc2)c[nH]c1=O gave a logD [21] of 0.54.

With COc1ccc(O)c2ncccc12 the logP [4] was 2.06.

C=C1CCC2(C(C)C)CC12 (configuration not stated) showed a logP [22] of 4.63.

Work on COC(=O)n1c(-c2cscn2)nc2ccccc21 yielded a logD [20] of 2.05.

In the case of CCON1C(=O)CC2(CCCC2)C1=O, the logD [7] is reported as 1.26.

For O=[N+]([O-])c1ccc2c(O)cccc2c1, the logD [9] was 3.5.

Work on Fc1cccc(F)c1C1=NCCO1 yielded a logP [14] of 1.45.

In the case of Clc1ccc2cccc(Cl)c2c1, the logP [23] is reported as 4.56.

For S=P(N1CCOCCOCCOCCOCCOCC1)(N1CC1)N1CC1, the logP [8] was 0.75.

For Cc1ccc(CCCC(N)=O)c(O)c1, the logD [9] was 2.26.
